Measurements as given in patent US10618916B2, “Heterocyclic compounds as immunomodulators” (Incyte Corporation, priority 2018, dated 2020).

Key:
[1] = target: PD-1/PD-L1 protein/protein interaction (recombinant human PD-L1 and human PD-1) (Homo sapiens (Human), UniProt Q9NZQ7); test: Homogeneous Time-Resolved Fluorescence (HTRF) PD-1/PD-L1 binding assay
Method in brief: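 Human PD-L1 (19-238, C-His; 10 nM final) and PD-1 (25-167, C-Fc; 3 nM final) preincubated 40 min with inhibitor in PBS pH 7.4, 0.05% Tween-20, 0.1% BSA, 1% DMSO, 25 °C. Eu-anti-human IgG (1 nM) and anti-His-APC (20 nM) added for 60 min; 665/620 nm ratio; IC50 from percent-control curves.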

[2] = system: U2OS/PD-L1 cells and Jurkat-PD-1-SHP cells; test: Src homology region 2 domain-containing phosphatase (SHP) assay; assay type: cell-based; settings: Homo sapiens, U2OS
Method in brief: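 U2OS/PD-L1 and Jurkat-PD-1-SHP cells (5000 each per well) were co-incubated with compound for 2 h at 37 °C in RPMI1640 with 1% FBS, 0.05% DMSO final. PathHunter chemiluminescence was read after 1 h at room temperature, and IC50 was fitted from percent of DMSO-control activity.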

[3] = system: PD-L1 aAPC/CHO-K1 cells and Jurkat-PD-1-NFAT effector cells; test: Nuclear factor of activated T-cells (NFAT) assay; assay type: cell-based; settings: Cricetulus griseus, CHO-K1
Method in brief: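 CHO-K1 cells expressing PD-L1 aAPC were co-cultured with Jurkat-PD-1-NFAT effector cells in RPMI 1640 with 1% FBS and compound (0.4% DMSO; top concentration 2 μM) for 24 h at 37 °C. Bio-Glo luminescence was read, fold induction normalised to DMSO wells, and EC50 fitted from percent of control compound activity.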

PD-L1 = PD-L1 (Homo sapiens (Human), UniProt Q9NZQ7); test: PD-L1 whole blood internalization assay; assay type: cell-based; settings: 24 HR, PD-L1 expression on CD14+ cells, human interferon γ
PD-L1, sequence (Q9NZQ7 19-290): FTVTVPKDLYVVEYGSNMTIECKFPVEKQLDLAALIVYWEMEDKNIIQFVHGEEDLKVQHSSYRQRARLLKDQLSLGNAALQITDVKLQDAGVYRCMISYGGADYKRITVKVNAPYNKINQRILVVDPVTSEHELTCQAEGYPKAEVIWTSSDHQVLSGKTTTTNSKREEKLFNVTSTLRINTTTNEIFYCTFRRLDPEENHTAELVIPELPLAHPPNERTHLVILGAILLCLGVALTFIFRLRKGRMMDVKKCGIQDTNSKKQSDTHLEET

PD-1/PD-L1 protein/protein interaction (recombinant human PD-L1 and human PD-1), sequence (Q9NZQ7 19-238): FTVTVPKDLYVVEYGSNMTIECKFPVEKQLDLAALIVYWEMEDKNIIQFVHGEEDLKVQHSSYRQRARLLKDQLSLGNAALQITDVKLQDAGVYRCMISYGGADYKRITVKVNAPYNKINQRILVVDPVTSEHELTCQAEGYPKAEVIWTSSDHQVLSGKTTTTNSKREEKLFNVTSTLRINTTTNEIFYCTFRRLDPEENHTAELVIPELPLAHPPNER

Row | Compound | IC50 [1] [µM] | IC50 [2] [µM] | EC50 [3] [µM] | IC50 (PD-L1) [µM]
1 | Cc1c(NC(=O)c2nc3c(n2C)CCN(CCC24CCC(C(=O)O)(CC2)C4)C3)cccc1-c1cccc(NC(=O)c2nc3c(n2C)CCN(C[C@@H](C)O)C3)c1Cl [Example 41, (R)-4-(2-(2-((2′-chloro-3′-(5-(2-hydroxypropyl)-1-methyl-4,5,6,7-tetrahydro-1H-imidazo[4,5-c]pyridine-2-carboxamido)-2-methyl-[1,1′-biphenyl]-3-yl)carbamoyl)-1-methyl-1,4,6,7-tetrahydro-5H-imidazo[4,5-c]pyridin-5-yl)ethyl)bicyclo[2.2.1]heptane-1-carboxylic Acid] | ≤ 0.005 | ≤ 0.01 | 0.01 to 0.1 | 0.01 to 0.1
2 | Cn1c(C(=O)Nc2cccc(-c3cccc(NC(=O)c4nc5c(n4C)CCN(CCC46CCC(C(=O)O)(CC4)C6)C5)c3C#N)c2Cl)nc2c1CCN(CCC13CCC(C(=O)O)(CC1)C3)C2 [Example 51, 4,4′-(((((2-chloro-2′-cyano-[1,1′-biphenyl]-3,3′-diyl)bis(azanediyl))bis(carbonyl))bis(1-methyl-1,4,6,7-tetrahydro-5H-imidazo[4,5-c]pyridine-2,5-diyl))bis(ethane-2,1-diyl))bis(bicyclo[2.2.1]heptane-1-carboxylic acid)] | ≤ 0.005 | ≤ 0.01 | 0.01 to 0.1 | 0.01 to 0.1
3 | Cn1c(C(=O)Nc2cccc(-c3cccc(NC(=O)c4nc5c(n4C)CCN(CC46CCC(C(=O)O)(CC4)CC6)C5)c3Cl)c2Cl)nc2c1CCN(CCC13CCC(C(=O)O)(CC1)C3)C2 [Example 23, 4-((2-((3′-(5-(2-(4-carboxybicyclo[2.2.1]heptan-1-yl)ethyl)-1-methyl-4,5,6,7-tetrahydro-1H-imidazo[4,5-c]pyridine-2-carboxamido)-2,2′-dichloro-[1,1′-biphenyl]-3-yl)carbamoyl)-1-methyl-1,4,6,7-tetrahydro-5H-imidazo[4,5-c]pyridin-5-yl)methyl)bicyclo[2.2.2]octane-1-carboxylic acid] | ≤ 0.005 | ≤ 0.01 | 0.01 to 0.1 | 0.1 to 0.5
4 | Cn1c(C(=O)Nc2cccc(-c3cccc(NC(=O)c4nc5c(n4C)CCN(Cc4cc[nH]n4)C5)c3Cl)c2Cl)nc2c1CCN(CCC13CCC(C(=O)O)(CC1)C3)C2 [Example 9, 4-(2-(2-((3′-(5-((1H-pyrazol-3-yl)methyl)-1-methyl-4,5,6,7-tetrahydro-1H-imidazo[4,5-c]pyridine-2-carboxamido)-2,2′-dichloro-[1,1′-biphenyl]-3-yl)carbamoyl)-1-methyl-1,4,6,7-tetrahydro-5H-imidazo[4,5-c]pyridin-5-yl)ethyl)bicyclo[2.2.1]heptane-1-carboxylic acid] | ≤ 0.005 | ≤ 0.01 | 0.01 to 0.1 | 0.01 to 0.1
5 | Cn1c(C(=O)Nc2cccc(-c3cccc(NC(=O)c4nc5c(n4C)CCN(CCC46CCC(C(=O)O)(CC4)C6)C5)c3Cl)c2Cl)nc2c1CCNC2 [Example 1, 4-(2-(2-((2,2′-dichloro-3′-(1-methyl-4,5,6,7-tetrahydro-1H-imidazo[4,5-c]pyridine-2-carboxamido)-[1,1′-biphenyl]-3-yl)carbamoyl)-1-methyl-1,4,6,7-tetrahydro-5H-imidazo[4,5-c]pyridin-5-yl)ethyl)bicyclo[2.2.1]heptane-1-carboxylic Acid] | ≤ 0.005 | ≤ 0.01 | 0.01 to 0.1 | ≤ 0.01
6 | Cc1c(NC(=O)c2nc3c(n2C)CCN(CCC24CCC(C(=O)O)(CC2)C4)C3)cccc1-c1cccc(NC(=O)c2nc3c(n2C)CCNC3)c1Cl [Example 37, 4-(2-(2-((2′-chloro-2-methyl-3′-(1-methyl-4,5,6,7-tetrahydro-1H-imidazo[4,5-c]pyridine-2-carboxamido)-[1,1′-biphenyl]-3-yl)carbamoyl)-1-methyl-1,4,6,7-tetrahydro-5H-imidazo[4,5-c]pyridin-5-yl)ethyl)bicyclo[2.2.1]heptane-1-carboxylic Acid] | ≤ 0.005 | ≤ 0.01 | 0.01 to 0.1 | 0.01 to 0.1
7 | Cn1c(C(=O)Nc2cccc(-c3cccc(NC(=O)c4nc5c(n4C)CCN(CC46CC(C(=O)O)(C4)C6)C5)c3Cl)c2Cl)nc2c1CCN(CCC13CCC(C(=O)O)(CC1)C3)C2 [Example 24, 3-((2-((3′-(5-(2-(4-carboxybicyclo[2.2.1]heptan-1-yl)ethyl)-1-methyl-4,5,6,7-tetrahydro-1H-imidazo[4,5-c]pyridine-2-carboxamido)-2,2′-dichloro-[1,1′-biphenyl]-3-yl)carbamoyl)-1-methyl-1,4,6,7-tetrahydro-5H-imidazo[4,5-c]pyridin-5-yl)methyl)bicyclo[1.1.1]-pentane-1-carboxylic acid] | ≤ 0.005 | ≤ 0.01 | 0.01 to 0.1 | 0.01 to 0.1
8 | Cn1c(C(=O)Nc2cccc(-c3cccc(NC(=O)c4nc5c(n4C)CCN(C4CCOCC4)C5)c3Cl)c2Cl)nc2c1CCN(CCC13CCC(C(=O)O)(CC1)C3)C2 [Example 2, 4-(2-(2-((2,2′-dichloro-3′-(1-methyl-5-(tetrahydro-2H-pyran-4-yl)-4,5,6,7-tetrahydro-1H-imidazo[4,5-c]pyridine-2-carboxamido)-[1,1′-biphenyl]-3-yl)carbamoyl)-1-methyl-1,4,6,7-tetrahydro-5H-imidazo[4,5-c]pyridin-5-yl)ethyl)bicyclo[2.2.1]heptane-1-carboxylic Acid] | ≤ 0.005 | ≤ 0.01 | 0.01 to 0.1 | 0.01 to 0.1
9 | Cn1c(C(=O)Nc2cccc(-c3cccc(NC(=O)c4nc5c(n4C)CCN(CCC46CCC(C(=O)O)(CC4)C6)C5)c3Cl)c2Cl)nc2c1CCN(CCc1ccc(C(=O)O)cc1)C2 [Example 25, 4-(2-(2-((3′-(5-(4-carboxyphenethyl)-1-methyl-4,5,6,7-tetrahydro-1H-imidazo[4,5-c]pyridine-2-carboxamido)-2,2′-dichloro-[1,1′-biphenyl]-3-yl)carbamoyl)-1-methyl-1,4,6,7-tetrahydro-5H-imidazo[4,5-c]pyridin-5-yl)ethyl)bicyclo[2.2.1]heptane-1-carboxylic acid] | ≤ 0.005 | 0.01 to 0.1 | 0.01 to 0.1 | 0.1 to 0.5
10 | C[C@@H](O)CN1CCc2c(nc(C(=O)Nc3cccc(-c4cccc(NC(=O)c5nc6c(n5C)CCN(CCC57CCC(C(=O)O)(CC5)C7)C6)c4Cl)c3Cl)n2C)C1 [Example 13, (R)-4-(2-(2-((2,2′-dichloro-3′-(5-(2-hydroxypropyl)-1-methyl-4,5,6,7-tetrahydro-1H-imidazo[4,5-c]pyridine-2-carboxamido)-[1,1′-biphenyl]-3-yl)carbamoyl)-1-methyl-1,4,6,7-tetrahydro-5H-imidazo[4,5-c]pyridin-5-yl)ethyl)bicyclo[2.2.1]heptane-1-carboxylic Acid] | ≤ 0.005 | ≤ 0.01 | ≤ 0.01 | 0.01 to 0.1
11 | Cn1c(C(=O)Nc2cccc(-c3cccc(NC(=O)c4nc5c(n4C)CCN(C4CCN(S(N)(=O)=O)CC4)C5)c3Cl)c2Cl)nc2c1CCN(CCC13CCC(C(=O)O)(CC1)C3)C2 [Example 8, 4-(2-(2-((2,2′-dichloro-3′-(1-methyl-5-(1-sulfamoylpiperidin-4-yl)-4,5,6,7-tetrahydro-1H-imidazo[4,5-c]pyridine-2-carboxamido)-[1,1′-biphenyl]-3-yl)carbamoyl)-1-methyl-1,4,6,7-tetrahydro-5H-imidazo[4,5-c]pyridin-5-yl)ethyl)bicyclo[2.2.1]heptane-1-carboxylic acid] | ≤ 0.005 | ≤ 0.01 | 0.01 to 0.1 | 0.1 to 0.5
